From patent publication US4683227A, “Antibiotic derivatives of 7β-[2-(thiazol-4-yl)acetamide]-3-chloro-3-cephem-4-carboxylic acids and compositions and method of use thereof” (Eli Lilly and Company, priority 1985, dated 1987)
In brackets after ≈: the same amount, converted by molar mass. Each block holds one molecule with its values, some of them ahead of it.

Legend:
Escherichia coli EC14 = assay: Minimum inhibitory concentration, standard agar dilution method; type: cell-based
Description: (§1) The method of this invention is useful in treating infections caused by a variety of microorganisms pathogenic to man and animals. […] The concentrations were obtained by the standard agar dilution method.

[1] = test system: Staphylococcus epidermidis 222; assay: as above; type: cell-based
Description: as §1

[2] = test system: Klebsiella pneumoniae KAE; assay: as above; type: cell-based; settings: Klebsiella pneumoniae KAE, agar dilution; for MIC: read-out: Minimum Inhibitory Concentration
Description: as §1

[3] = test system: Staphylococcus aureus X1.1; assay: as above; type: cell-based
Description: as §1

[4] = test system: Streptococcus pneumoniae PARK I; assay: as above; type: cell-based
Description: as §1

[5] = test system: Staphylococcus aureus V41; assay: as above; type: cell-based; settings: Staphylococcus aureus V41, agar dilution; for MIC: read-out: Minimum Inhibitory Concentration
Description: as §1

[6] = test system: Streptococcus sp. group D X66; assay: as above; type: cell-based; settings: Streptococcus sp. group D X66, agar dilution; for MIC: read-out: Minimum Inhibitory Concentration
Description: as §1

[7] = test system: Haemophilus influenzae 76; assay: as above; type: cell-based
Description: as §1

[8] = test system: Haemophilus influenzae C.L.; assay: as above; type: cell-based
Description: as §1

[9] = test system: Staphylococcus epidermidis Epil; assay: as above; type: cell-based
Description: as §1

[10] = test system: Staphylococcus aureus X400; assay: as above; type: cell-based; settings: Staphylococcus aureus X400, agar dilution; for MIC: read-out: Minimum Inhibitory Concentration
Description: as §1

Escherichia coli N10 = assay: as above; type: cell-based
Description: as §1

[11] = test system: Klebsiella pneumoniae X68; assay: as above; type: cell-based
Description: as §1

[12] = test system: Staphylococcus aureus S13E; assay: as above; type: cell-based; settings: for Minimum Inhibitory Concentration: Staphylococcus aureus S13E, agar dilution; for MIC: Staphylococcus aureus, S13E, read-out: Minimum Inhibitory Concentration
Description: as §1

[13] = test system: Streptococcus pyogenes C203; assay: as above; type: cell-based
Description: as §1

Escherichia coli TEM = assay: as above; type: cell-based
Description: as §1

[14] = test system: Klebsiella pneumoniae X26; assay: as above; type: cell-based
Description: as §1

[15] = test system: Streptococcus sp. group D 2041; assay: as above; type: cell-based; settings: Streptococcus sp. group D 2041, agar dilution; for MIC: read-out: Minimum Inhibitory Concentration
Description: as §1

[16] = Peroral bioavailability in mice (oral vs subcutaneous dosage); type: in vivo, mice (Cox Male Standard Mice, Lai:COX (Standard) BR); settings: 20 mg/kg
Description: Cox Male Standard Mice, Lai:COX (Standard) BR were housed overnight in a wire-bottom cage with free access to water and liquid diet. The result was a gastro-intestinal tract free of solids, yet without the nutritional shock and coprophagy that often accompanies overnight starvation of rodents. After dosing, the mice were housed individually in ventilated wide-mouth jars containing a layer of buffer beneath an elevated wire screen floor. At intervals after dosing, mice were removed from the jars and heparinized blood, stomach, and small intestine were removed from the animals. The urinary bladder was removed and combined with the urine collected in the buffer in the bottom of the jars. Urine, washings from the stomach and small intestine, and plasma prepared from blood samples were assayed for antibiotic activity. The test procedure used is a modification of the test procedure described by W. E. Wright, et al., J. Antibiotics, 32:1155 (1979).
Dose solutions were prepared in saline at 2 mg/ml for subcutaneous or oral administration. In all cases the compounds were administered to the mice at 20 mg/kg on an equal weight basis.
The biological activity of the samples was determined by a conventional agar well procedure using Bacillus subtilis ATCC 6633 as the test organism.
Peroral bioavailability (BA) of the test compounds in mice can be determined either by comparison of the area under the plasma curves (AUC) after oral or subcutaneous dosage, or by comparison of the urinary excretion of the dose after oral and subcutaneous dosage. Calculations of BA by either method are made with the following formulae: [formula]

[17] = Oral bioavailability in dogs; type: in vivo; settings: female mongrel dogs

SMILES: O=C(Cn1cnnn1)N[C@@H]1C(=O)N2C(C(=O)O)=C(Cl)CS[C@H]12 [Compound 6]
Minimum Inhibitory Concentration (Escherichia coli EC14): 16 µg/mL
Minimum Inhibitory Concentration [1]: 4 µg/mL
Minimum Inhibitory Concentration [2]: > 128 µg/mL
Minimum Inhibitory Concentration [3]: 2 µg/mL
Minimum Inhibitory Concentration [4]: 0.5 µg/mL
Minimum Inhibitory Concentration [5]: 32 µg/mL
Minimum Inhibitory Concentration [6]: 64 µg/mL
Minimum Inhibitory Concentration [7]: 8 µg/mL
Minimum Inhibitory Concentration [8]: 16 µg/mL
Minimum Inhibitory Concentration [9]: 16 µg/mL
Minimum Inhibitory Concentration [10]: > 128 µg/mL
Minimum Inhibitory Concentration (Escherichia coli N10): 32 µg/mL
Minimum Inhibitory Concentration [11]: 32 µg/mL
Minimum Inhibitory Concentration [12]: 32 µg/mL
Minimum Inhibitory Concentration [13]: 0.5 µg/mL
Minimum Inhibitory Concentration (Escherichia coli TEM): 32 µg/mL
Minimum Inhibitory Concentration [14]: 32 µg/mL
Minimum Inhibitory Concentration [15]: 64 µg/mL

SMILES: O=C(Cc1csc(-c2ccccc2)n1)N[C@@H]1C(=O)N2C(C(=O)O)=C(Cl)CS[C@H]12 [Compound 5, 7β-[2-(2-Phenylthiazol-4-yl)acetamido]-3-chloro-3-cephem-4-carboxylic acid]
MIC (Escherichia coli EC14): > 128 µg/mL
MIC [1]: 0.5 µg/mL (≈ 1.15 µM)
MIC [2]: > 128 µg/mL
MIC [3]: 0.25 µg/mL (≈ 0.574 µM)
MIC [4]: 0.125 µg/mL (≈ 0.287 µM)
MIC [5]: 32 µg/mL (≈ 73.4 µM)
MIC [6]: 64 µg/mL (≈ 147 µM)
MIC [7]: 0.5 µg/mL (≈ 1.15 µM)
MIC [8]: 4 µg/mL (≈ 9.18 µM)
MIC [9]: 4 µg/mL (≈ 9.18 µM)
MIC [10]: 64 µg/mL (≈ 147 µM)
MIC (Escherichia coli N10): > 128 µg/mL
MIC [11]: > 128 µg/mL
MIC [12]: 16 µg/mL (≈ 36.7 µM)
MIC [13]: 0.06 µg/mL (≈ 0.138 µM)
MIC (Escherichia coli TEM): > 128 µg/mL
MIC [14]: 8 µg/mL (≈ 18.4 µM)
MIC [15]: 16 µg/mL (≈ 36.7 µM)

SMILES: O=C(Cc1csc(Cl)n1)N[C@@H]1C(=O)N2C(C(=O)O)=C(Cl)CS[C@H]12 [Compound 3, 7β-[2-(2-Chlorothiazol-4-yl)acetamido]-3-chloro-3-cephem-4-carboxylic acid]
MIC (Escherichia coli EC14): 16 µg/mL (≈ 40.6 µM)
MIC [1]: 2 µg/mL (≈ 5.07 µM)
MIC [2]: 128 µg/mL (≈ 325 µM)
MIC [3]: 1 µg/mL (≈ 2.54 µM)
MIC [4]: 0.5 µg/mL (≈ 1.27 µM)
MIC [5]: 64 µg/mL (≈ 162 µM)
MIC [6]: 128 µg/mL (≈ 325 µM)
MIC [7]: 2 µg/mL (≈ 5.07 µM)
MIC [8]: 2 µg/mL (≈ 5.07 µM)
MIC [9]: 8 µg/mL (≈ 20.3 µM)
MIC [10]: > 128 µg/mL
MIC (Escherichia coli N10): 32 µg/mL (≈ 81.2 µM)
MIC [11]: 8 µg/mL (≈ 20.3 µM)
MIC [12]: 64 µg/mL (≈ 162 µM)
MIC [13]: 0.25 µg/mL (≈ 0.634 µM)
MIC (Escherichia coli TEM): 16 µg/mL (≈ 40.6 µM)
MIC [14]: 4 µg/mL (≈ 10.1 µM)
MIC [15]: 64 µg/mL (≈ 162 µM)
Oral Bioavailability % BA (AUC) ([16]; area under plasma curves after oral vs subcutaneous dosage): 66%
Oral Bioavailability % BA (URINE) ([16]; urinary excretion after oral vs subcutaneous dosage): 56%

SMILES: N#Cc1ncn(CC(=O)N[C@@H]2C(=O)N3C(C(=O)O)=C(Cl)CS[C@H]23)n1 [Compound 7]
Minimum Inhibitory Concentration (Escherichia coli EC14): 32 µg/mL
Minimum Inhibitory Concentration [1]: 4 µg/mL
Minimum Inhibitory Concentration [2]: > 128 µg/mL
Minimum Inhibitory Concentration [3]: 2 µg/mL
Minimum Inhibitory Concentration [4]: 0.5 µg/mL
Minimum Inhibitory Concentration [5]: 128 µg/mL
Minimum Inhibitory Concentration [6]: 128 µg/mL
Minimum Inhibitory Concentration [7]: 2 µg/mL
Minimum Inhibitory Concentration [8]: 2 µg/mL
Minimum Inhibitory Concentration [9]: 8 µg/mL
Minimum Inhibitory Concentration [10]: > 128 µg/mL
Minimum Inhibitory Concentration (Escherichia coli N10): 64 µg/mL
Minimum Inhibitory Concentration [11]: 64 µg/mL
Minimum Inhibitory Concentration [12]: 128 µg/mL
Minimum Inhibitory Concentration [13]: 0.25 µg/mL
Minimum Inhibitory Concentration (Escherichia coli TEM): 64 µg/mL
Minimum Inhibitory Concentration [14]: 32 µg/mL
Minimum Inhibitory Concentration [15]: 64 µg/mL

bioavailability ([17]; dog, urine recovery with time following intravenous and oral administration, read-out: bioavailability (percent of dose recovered in the urine)): 21%
oral bioavailability (area under the curves) ([17]; serum antibacterial levels with time following intravenous and oral administration): 11%
SMILES: CC1(C)S[C@@H]2[C@H](NC(=O)COc3ccccc3)C(=O)N2[C@H]1C(=O)O [Penicillin V]
